Data: ChEMBL document CHEMBL5223102, “CDK9 inhibitors in cancer research” (RSC Med Chem, 2022)

Experiments:
[1] = biological target: Protein cereblon/Cyclin-dependent kinase 9 (Homo sapiens, UniProt P50750+Q96SW2); experiment: Protac activity at CRBN/CDK9 in human MOLT-4 cells assessed as degradation of CDK9 measured after 6 hrs by western blot analysis; type: cell-based
[2] = biological target: Cyclin-dependent kinase 5/CDK5 activator 1 (Homo sapiens, UniProt Q00535); experiment: Inhibition of CDK5/p35 (unknown origin); type: protein-complex assay
Sequence of Cyclin-dependent kinase 5/CDK5 activator 1 (Q00535 whole entry): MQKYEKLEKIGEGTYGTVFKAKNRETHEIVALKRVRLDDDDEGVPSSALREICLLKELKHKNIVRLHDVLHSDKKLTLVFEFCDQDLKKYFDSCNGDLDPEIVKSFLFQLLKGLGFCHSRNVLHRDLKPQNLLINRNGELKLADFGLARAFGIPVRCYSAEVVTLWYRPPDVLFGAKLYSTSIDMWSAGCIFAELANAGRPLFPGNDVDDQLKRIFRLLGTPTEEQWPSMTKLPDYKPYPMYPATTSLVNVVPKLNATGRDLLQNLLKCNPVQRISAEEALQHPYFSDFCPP
Sequence of Cyclin-dependent kinase 5/CDK5 activator 1 (Q15078 whole entry, further chain): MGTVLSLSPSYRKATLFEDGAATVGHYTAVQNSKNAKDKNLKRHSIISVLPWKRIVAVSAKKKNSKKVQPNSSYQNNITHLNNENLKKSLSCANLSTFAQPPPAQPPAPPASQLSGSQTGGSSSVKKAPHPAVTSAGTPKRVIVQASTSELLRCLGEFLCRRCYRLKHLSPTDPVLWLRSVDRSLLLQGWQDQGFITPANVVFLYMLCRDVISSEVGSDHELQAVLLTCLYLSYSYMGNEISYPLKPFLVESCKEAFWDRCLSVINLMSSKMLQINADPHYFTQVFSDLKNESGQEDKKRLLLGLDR

[3] = biological target: Cyclin-dependent kinase 12 (Homo sapiens, UniProt Q9NYV4)
[4] = biological target: Cyclin-dependent kinase 17 (Homo sapiens, UniProt Q00537); experiment: Inhibition of CDK17 (unknown origin) incubated for 120 mins in presence of ATP by HotSpot kinase assay
[5] = biological target: T1, Cyclin-dependent kinase 2 (Homo sapiens, UniProt P24941); experiment: Inhibition of CDK2 (unknown origin) incubated for 120 mins in presence of ATP by HotSpot kinase assay
[6] = biological target: Cyclin-dependent kinase 16 (Homo sapiens, UniProt Q00536); experiment: Inhibition of CDK16 (unknown origin) incubated for 120 mins in presence of ATP by HotSpot kinase assay
[7] = biological target: Cyclin-dependent kinase 4 (Homo sapiens, UniProt P11802); experiment: Inhibition of CDK4 (unknown origin) incubated for 120 mins in presence of ATP by HotSpot kinase assay
Sequence of Cyclin-dependent kinase 4 (P11802 whole entry): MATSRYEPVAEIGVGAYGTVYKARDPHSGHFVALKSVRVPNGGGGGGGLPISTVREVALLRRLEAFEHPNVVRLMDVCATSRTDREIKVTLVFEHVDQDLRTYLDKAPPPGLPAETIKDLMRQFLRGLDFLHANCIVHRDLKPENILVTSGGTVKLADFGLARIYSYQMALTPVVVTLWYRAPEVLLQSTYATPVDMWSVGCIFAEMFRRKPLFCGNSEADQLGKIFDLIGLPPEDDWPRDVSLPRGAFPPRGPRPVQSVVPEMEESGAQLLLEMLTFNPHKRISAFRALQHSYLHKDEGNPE

[8] = biological target: T2, Cyclin-dependent kinase 5 (Homo sapiens, UniProt Q00535); experiment: Inhibition of CDK5 (unknown origin) incubated for 120 mins in presence of ATP by HotSpot kinase assay
T2 sequence (Q00535 whole entry): as the sequence (Q00535 whole entry) above

[9] = biological target: T3, Cyclin-dependent kinase 8 (Homo sapiens, UniProt P49336); experiment: Inhibition of CDK8 (unknown origin) incubated for 120 mins in presence of ATP by HotSpot kinase assay
T3 sequence (P49336 whole entry): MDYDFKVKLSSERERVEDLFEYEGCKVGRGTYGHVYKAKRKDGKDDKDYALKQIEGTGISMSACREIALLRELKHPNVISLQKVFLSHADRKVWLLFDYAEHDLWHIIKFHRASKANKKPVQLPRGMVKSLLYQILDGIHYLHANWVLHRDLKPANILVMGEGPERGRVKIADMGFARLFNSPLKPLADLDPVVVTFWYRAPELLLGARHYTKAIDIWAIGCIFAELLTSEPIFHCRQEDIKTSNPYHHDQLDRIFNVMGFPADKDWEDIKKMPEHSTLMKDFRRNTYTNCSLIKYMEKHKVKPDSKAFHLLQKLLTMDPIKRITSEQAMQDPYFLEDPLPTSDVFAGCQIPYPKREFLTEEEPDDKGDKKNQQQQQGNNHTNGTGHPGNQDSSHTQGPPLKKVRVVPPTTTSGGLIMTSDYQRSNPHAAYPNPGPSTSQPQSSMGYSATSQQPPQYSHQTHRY

[10] = biological target: T4, Cyclin-dependent kinase 6 (Homo sapiens, UniProt Q00534); experiment: Inhibition of CDK6 (unknown origin) incubated for 120 mins in presence of ATP by HotSpot kinase assay
T4 sequence (Q00534 whole entry): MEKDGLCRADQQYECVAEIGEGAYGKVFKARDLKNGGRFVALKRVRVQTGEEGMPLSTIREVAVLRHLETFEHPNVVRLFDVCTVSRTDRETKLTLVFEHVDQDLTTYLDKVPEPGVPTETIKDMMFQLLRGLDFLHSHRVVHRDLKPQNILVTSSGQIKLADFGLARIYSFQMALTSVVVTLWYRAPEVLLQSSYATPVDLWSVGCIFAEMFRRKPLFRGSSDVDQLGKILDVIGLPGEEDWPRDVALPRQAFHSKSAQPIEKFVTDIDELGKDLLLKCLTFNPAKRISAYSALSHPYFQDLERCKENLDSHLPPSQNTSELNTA

[11] = biological target: Cyclin-dependent kinase 13 (Homo sapiens, UniProt Q14004)
[12] = biological target: Cyclin-dependent kinase 19 (Homo sapiens, UniProt Q9BWU1); experiment: Inhibition of CDK19 (unknown origin) incubated for 120 mins in presence of ATP by HotSpot kinase assay
Sequence of Cyclin-dependent kinase 19 (Q9BWU1 whole entry): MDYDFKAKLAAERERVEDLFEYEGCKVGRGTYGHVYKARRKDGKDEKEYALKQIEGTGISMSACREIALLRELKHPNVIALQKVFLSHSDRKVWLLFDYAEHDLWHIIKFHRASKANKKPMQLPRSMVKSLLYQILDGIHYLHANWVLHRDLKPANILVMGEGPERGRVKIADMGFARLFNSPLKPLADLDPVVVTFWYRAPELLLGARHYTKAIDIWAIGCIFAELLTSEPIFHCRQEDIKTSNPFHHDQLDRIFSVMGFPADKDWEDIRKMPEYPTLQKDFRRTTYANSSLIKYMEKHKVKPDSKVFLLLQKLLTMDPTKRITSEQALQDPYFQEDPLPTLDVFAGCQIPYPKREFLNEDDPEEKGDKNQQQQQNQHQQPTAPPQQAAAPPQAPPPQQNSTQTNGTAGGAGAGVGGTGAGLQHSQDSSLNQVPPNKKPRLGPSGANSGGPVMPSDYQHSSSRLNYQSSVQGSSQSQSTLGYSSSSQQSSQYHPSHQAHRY

[13] = biological target: Cyclin-dependent kinase 18 (Homo sapiens, UniProt Q07002)
Sequence of Cyclin-dependent kinase 18 (Q07002 whole entry): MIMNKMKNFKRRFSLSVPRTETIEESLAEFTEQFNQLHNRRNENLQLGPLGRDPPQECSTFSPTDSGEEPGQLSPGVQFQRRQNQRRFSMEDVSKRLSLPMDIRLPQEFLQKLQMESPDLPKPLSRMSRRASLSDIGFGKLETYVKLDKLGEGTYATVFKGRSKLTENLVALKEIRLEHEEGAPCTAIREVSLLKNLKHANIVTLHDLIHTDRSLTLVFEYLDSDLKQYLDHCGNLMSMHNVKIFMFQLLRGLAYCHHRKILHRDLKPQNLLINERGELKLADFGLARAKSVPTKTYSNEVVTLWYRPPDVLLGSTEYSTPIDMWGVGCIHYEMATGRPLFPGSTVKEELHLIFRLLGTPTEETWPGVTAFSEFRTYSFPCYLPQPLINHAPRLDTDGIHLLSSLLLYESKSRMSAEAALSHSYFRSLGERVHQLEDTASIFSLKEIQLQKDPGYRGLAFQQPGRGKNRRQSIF

[14] = biological target: Cyclin-dependent kinase 3 (Homo sapiens, UniProt Q00526); experiment: Inhibition of CDK3 (unknown origin) incubated for 120 mins in presence of ATP by HotSpot kinase assay
[15] = biological target: Cyclin-dependent kinase 14 (Homo sapiens, UniProt O94921); experiment: Inhibition of CDK14 (unknown origin) incubated for 120 mins in presence of ATP by HotSpot kinase assay
[16] = biological target: Cyclin-dependent kinase 2/cyclin A (Homo sapiens, UniProt P24941); experiment: Inhibition of CDK2/cyclin A (unknown origin) using GST-CTD and gamma-32P-ATP as substrate incubated for 5 min by […]; type: protein-complex assay
[17] = biological target: Cyclin-dependent kinase 9 (Homo sapiens, UniProt P50750)
Sequence of Cyclin-dependent kinase 9 (P50750 whole entry): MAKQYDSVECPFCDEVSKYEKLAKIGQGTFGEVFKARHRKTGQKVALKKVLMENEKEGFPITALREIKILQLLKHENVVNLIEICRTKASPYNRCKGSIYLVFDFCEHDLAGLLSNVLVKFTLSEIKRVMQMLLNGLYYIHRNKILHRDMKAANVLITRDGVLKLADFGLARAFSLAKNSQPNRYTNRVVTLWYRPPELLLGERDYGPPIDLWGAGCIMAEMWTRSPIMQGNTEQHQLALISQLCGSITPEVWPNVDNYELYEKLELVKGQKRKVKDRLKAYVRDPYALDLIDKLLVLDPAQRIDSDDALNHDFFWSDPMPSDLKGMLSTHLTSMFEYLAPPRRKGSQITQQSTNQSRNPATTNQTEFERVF

[18] = biological target: T1, Cyclin-dependent kinase 2
[19] = biological target: T4, Cyclin-dependent kinase 6; experiment: Inhibition of CDK6 (unknown origin)
[20] = biological target: T3, Cyclin-dependent kinase 8; experiment: Inhibition of CDK8 (unknown origin)
[21] = biological target: T2, Cyclin-dependent kinase 5; experiment: Inhibition of CDK5 (unknown origin)
[22] = biological target: CDK8/Cyclin C (Homo sapiens, UniProt P49336); experiment: Inhibition of CDK8/Cyclin C (unknown origin) by LanthaScreen binding assay; type: protein-complex assay
Sequence of CDK8/Cyclin C (P49336 whole entry): as the sequence (P49336 whole entry) above
Sequence of CDK8/Cyclin C (P24863 whole entry, further chain): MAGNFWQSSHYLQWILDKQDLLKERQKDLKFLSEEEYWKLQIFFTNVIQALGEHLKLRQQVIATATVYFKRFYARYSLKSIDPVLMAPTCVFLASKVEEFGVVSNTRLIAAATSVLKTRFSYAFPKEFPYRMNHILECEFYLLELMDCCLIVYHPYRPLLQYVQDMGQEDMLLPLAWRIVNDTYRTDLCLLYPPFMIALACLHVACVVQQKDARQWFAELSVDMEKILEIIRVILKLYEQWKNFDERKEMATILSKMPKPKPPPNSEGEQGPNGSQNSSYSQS

[23] = biological target: Cyclin-C/Cyclin-dependent kinase 19 (Homo sapiens, UniProt Q9BWU1); experiment: Inhibition of CDK19/Cyclin C (unknown origin) by LanthaScreen binding assay; type: protein-complex assay
Sequence of Cyclin-C/Cyclin-dependent kinase 19 (Q9BWU1 whole entry): as the sequence (Q9BWU1 whole entry) above
Sequence of Cyclin-C/Cyclin-dependent kinase 19 (P24863 whole entry, further chain): as the sequence (P24863 whole entry, further chain) above

[24] = biological target: CDK9/Cyclin K (Homo sapiens, UniProt P50750); experiment: Inhibition of CDK9/Cyclin K (unknown origin) by LanthaScreen binding assay; type: protein-complex assay
Sequence of CDK9/Cyclin K (P50750 whole entry): as the sequence (P50750 whole entry) above
Sequence of CDK9/Cyclin K (O75909 whole entry, further chain): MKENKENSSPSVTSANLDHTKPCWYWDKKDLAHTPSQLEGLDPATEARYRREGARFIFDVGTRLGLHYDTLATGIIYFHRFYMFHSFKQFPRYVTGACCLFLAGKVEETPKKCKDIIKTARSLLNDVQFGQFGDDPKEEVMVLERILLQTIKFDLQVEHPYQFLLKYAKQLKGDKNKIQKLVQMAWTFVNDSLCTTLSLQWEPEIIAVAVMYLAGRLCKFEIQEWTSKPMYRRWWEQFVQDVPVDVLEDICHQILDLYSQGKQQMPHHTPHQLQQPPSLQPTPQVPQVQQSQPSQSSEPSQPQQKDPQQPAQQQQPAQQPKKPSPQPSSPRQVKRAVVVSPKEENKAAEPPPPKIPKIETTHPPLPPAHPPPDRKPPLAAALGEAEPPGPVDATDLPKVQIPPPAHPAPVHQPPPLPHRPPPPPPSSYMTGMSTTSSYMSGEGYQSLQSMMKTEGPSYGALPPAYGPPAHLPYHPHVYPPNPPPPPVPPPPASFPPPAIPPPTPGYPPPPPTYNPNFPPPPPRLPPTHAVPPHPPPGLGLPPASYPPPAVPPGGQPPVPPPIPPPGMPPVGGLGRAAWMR

[25] = biological target: Cyclin-dependent kinase 1/cyclin B (Homo sapiens, UniProt P06493); experiment: Inhibition of CDK1/Cyclin B (unknown origin); type: protein-complex assay
[26] = Inhibition of CDK6/Cyclin D3 (unknown origin); parameters: species or system Homo sapiens
[27] = Inhibition of CDK4/Cyclin D (unknown origin); parameters: species or system Homo sapiens
[28] = Inhibition of CDK3/Cyclin E (unknown origin); parameters: species or system Homo sapiens
[29] = Inhibition of CDK7/Cyclin H/MAT1 (unknown origin); parameters: species or system Homo sapiens

Sequence of Protein cereblon/Cyclin-dependent kinase 9 (P50750 whole entry): as the sequence (P50750 whole entry) above
Sequence of Protein cereblon/Cyclin-dependent kinase 9 (Q96SW2 whole entry): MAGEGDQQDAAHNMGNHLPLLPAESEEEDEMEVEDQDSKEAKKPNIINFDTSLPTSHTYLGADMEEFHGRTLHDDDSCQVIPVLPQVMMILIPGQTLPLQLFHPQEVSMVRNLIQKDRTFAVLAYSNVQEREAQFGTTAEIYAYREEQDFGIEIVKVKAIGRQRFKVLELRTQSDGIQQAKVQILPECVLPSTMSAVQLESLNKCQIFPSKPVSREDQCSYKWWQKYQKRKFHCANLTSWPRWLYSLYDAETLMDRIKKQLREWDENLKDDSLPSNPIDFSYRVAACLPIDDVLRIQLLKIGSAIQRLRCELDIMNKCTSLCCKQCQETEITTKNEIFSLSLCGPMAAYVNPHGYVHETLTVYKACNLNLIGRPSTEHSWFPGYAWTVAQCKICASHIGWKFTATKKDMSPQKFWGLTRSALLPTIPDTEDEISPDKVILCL

## CC(C)(C)c1cnc(CSc2cnc(NC(=O)C3CCN(CC(=O)NCCOCCOCCOCCNc4cccc5c4C(=O)N(C4CCC(=O)NC4=O)C5=O)CC3)s2)o1 (stereo unspecified)
[1]
  DC50: < 250 nM

## COCCN1CCN(Cc2ccc(-c3n[nH]c4c3C(=O)c3c(NC(=O)NN5CCOCC5)cccc3-4)cc2)CC1 [RGB-286638]
[2]
  IC50: 5 nM

## CCCc1cc(N[C@@H]2CC[C@@H](N)C2)n2nccc2n1
[3]
  IC50: 6200 nM
[4]
  IC50: > 1200 nM
[5]
  IC50: 18200 nM
[6]
  IC50: > 1200 nM
[7]
  IC50: > 1200 nM
[8]
  IC50: > 1200 nM
[9]
  IC50: > 1200 nM
[10]
  IC50: > 1200 nM
[11]
  IC50: 4550 nM
[12]
  IC50: > 1200 nM
[13]
  IC50: > 1200 nM
[14]
  IC50: > 1200 nM
[15]
  IC50: > 1200 nM

## Nc1n[nH]c(N)c1/N=N/c1ccc(O)cc1
[16]
  IC50: 3500 nM

## COc1cc(O)c2c(=O)cc(-c3ccc(N4CCN(C)CC4)cc3)oc2c1N1CCNCC1
[17]
  IC50: 30 nM
[18]
  IC50: 1180 nM

## CN1CC[C@@H](c2c(O)cc(O)c3c(=O)cc(-c4ccc(C(F)(F)F)cc4Cl)oc23)[C@@H]1CO [VORUCICLIB]
[19]
  IC50: 210 nM
[20]
  IC50: 12 nM
[21]
  IC50: 210 nM
[18]
  IC50: 180 nM

## CC(C)c1ccc(Nc2nccc(-c3cnn4ncccc34)n2)cc1 [GW805758X]
[22]
  IC50: 1.1 nM
[23]
  IC50: 2.7 nM
[24]
  IC50: 20 nM

## Nc1nc(N[C@H]2CC3CCC2C3)sc1C(=O)c1ccccc1[N+](=O)[O-] (stereo partly specified)
[25]
  IC50: 138 nM
[26]
  IC50: 712 nM
[27]
  IC50: 112 nM
[28]
  IC50: 399 nM
[2]
  IC50: 159 nM
[29]
  IC50: 555 nM
